Data as given in patent US20220152037A1, “USE OF GABAA RECEPTOR MODULATORS FOR TREATMENT OF PAIN” (NEUROCYCLE THERAPEUTIC, INC., priority 2019, published 2022).
Entries after “also recorded” stand apart in the source; their conditions may differ.

Tested on: rat model of fibromyalgia pain (reserpine-induced mechanical allodynia)
Assay: Mechanical allodynia (von Frey 50% response threshold) in reserpine-induced rat model of fibromyalgia pain
Assay type: in vivo
From the text: The purpose of the study is to assess the efficacy of the described compounds in the rat model of fibromyalgia pain.
Animals were assigned to treatment groups based on Day 0 pre-dose von Frey 50% response thresholds so that group means of the mean paw withdrawal latencies were approximately equal. Animals were ranked by pre- and post-reserpine baseline change from lowest to highest, and treatments were assigned randomly within stratified sub-groups according to the total number of treatment groups in the study.
The animals were dosed in sequence based on animal number, so that the distribution of treatment across a given set of animals was not predictable.
Mechanical fibromyalgia-associated allodynia is measured using […] (Stoelting©; Wood Dale, Ill., USA) with varying stiffness (0.04, 0.07, 0.16, 0.4, 1.0, 4.0, and 8.0 g) according to the up-down method 1. Animals were placed in individual acrylic chambers on a metal mesh surface and allowed to acclimate to their surroundings for a minimum of 15 minutes before testing. Each filament was presented perpendicular to the plantar surface with sufficient force to cause slight buckling against the paw and held for approximately 4 seconds or until a positive response is noted (paw sharply withdrawn). Testing was initiated with the 0.4 g filament. In the absence of a paw withdrawal response, the next stronger stimulus was presented. In the event of paw withdrawal, the next weaker stimulus was used. This process was repeated until 4 responses after the initial change in response (no response to positive response or positive response to no response) were obtained. […] The 50% response threshold is calculated using the formula:
50% response threshold (g)=(10(Xf+kδ))/10,000
• Pre-Injury mechanical fibromyalgia-associated allodynia testing (vF) • Reserpine injection
• Mechanical fibromyalgia-associated allodynia testing (vF; time baseline) • Dosing (time 0 min) • Mechanical fibromyalgia-associated allodynia testing (vF; time ˜1 hour) • Mechanical fibromyalgia-associated allodynia testing (vF; time ˜2 hour) • Mechanical fibromyalgia-associated allodynia testing (vF; time ˜4 hour) • Euthanasia
Pain was induced by three daily doses of 1 mg/kg reserpine, and mechanical fibromyalgia-associated allodynia was assessed using von Frey filaments. Mechanical fibromyalgia-associated allodynia was measured prior to and the first reserpine injection and 4 days following the third injection. GABAA receptor modulators (0.3 or 3 mg/kg), pregabalin (30 mg/kg) or vehicle (0.5% methylcellulose) were administered 4 days after the last reserpine injection, with mechanical fibromyalgia-associated allodynia being assessed prior to, and at 1, 2, and 4 hours post-administration to determine the efficacy of GABAA receptor modulators in this model.

| SMILES | Mean Paw Response Thresholds (0.3 mg/kg PO group, Day 0, Baseline (post-reserpine, before dosing)) [g] | Mean Paw Response Thresholds (0.3 mg/kg PO group, Pre-reserpine (before dosing)) [g] | Mean Paw Response Thresholds (0.3 mg/kg PO, Day 0, 1 hr post-dosing) [g] | Mean Paw Response Thresholds (0.3 mg/kg PO, Day 0, 2 hr post-dosing) [g] | Mean Paw Response Thresholds (0.3 mg/kg PO, Day 0, 4 hr post-dosing) [g] | Mean Paw Response Thresholds (3 mg/kg PO group, Day 0, Baseline (post-reserpine, before dosing)) [g] | Mean Paw Response Thresholds (3 mg/kg PO group, Pre-reserpine (before dosing)) [g] | Mean Paw Response Thresholds (3 mg/kg PO, Day 0, 1 hr post-dosing) [g] | Mean Paw Response Thresholds (3 mg/kg PO, Day 0, 2 hr post-dosing) [g] | Mean Paw Response Thresholds (3 mg/kg PO, Day 0, 4 hr post-dosing) [g] | Mean Paw Response Thresholds (30 mg/kg PO group, Day 0, Baseline (post-reserpine, before dosing)) [g] | Mean Paw Response Thresholds (30 mg/kg PO group, Pre-reserpine (before dosing)) [g] | Reversal of reserpine-induced mechanical fibromyalgia-associated allodynia (response thresholds) (30 mg/kg PO, 1, 2 and 4 hour time points) | Mean Paw Response Thresholds (30 mg/kg PO, Day 0, 1 hr post-dosing) [g] | Mean Paw Response Thresholds (30 mg/kg PO, Day 0, 2 hr post-dosing) [g] | Mean Paw Response Thresholds (30 mg/kg PO, Day 0, 4 hr post-dosing) [g] |
| --- | --- | --- | --- | --- | --- | --- | --- | --- | --- | --- | --- | --- | --- | --- | --- | --- |
| CC(C)(O)c1cnn2c(-c3ccc(F)c(-c4c(F)cccc4C#N)c3)cnc2n1 [Compound 1] | 3.68 | 14.50 | 6.52 | 8.36 | 7.96 | 3.82 | 14.01 | 6.08 | 7.98 | 7.54 | – | – | – | – | – | – |
| CC(C)C[C@H](CN)CC(=O)O [pregabalin, reference compound] | – | – | – | – | – | – | – | – | – | – | 3.84 | 14.55 | significantly increased median response thresholds at all of the time points following dosing; also recorded: significantly reversed mechanical fibromyalgia-associated allodynia | 9.34 | 10.17 | 10.23 |
